This note sets out measurements from patent publication US20070191493A1, “Use of n-alkanols as activators of the cftr channel” (priority 2003, published 2007).

In assay [1] the test system is intracellular cAMP level. As to the kind of experiment: total intracellular cAMP assay in CHO-CFTR(+) cells. The conditions noted are these: 5 min, FSK 1 or 5 μM, alcohols 1 mM. The format is cell-based, Chinese hamster. The procedure:
The CHO cells are cultured for four days in a 24-well culture plate. On the fourth day of culture, each well is rinsed twice with 500 μl of medium B, and 500 μl of this buffer containing the molecule to be tested are added to each well. After incubation at 37° C. for 5 min, the reaction is stopped by adding a cell lysis buffer. The cell lysis is verified with Trypan blue. The amount of cAMP contained in the cells is determined using the Enzyme Immuno Assay kit (Amersham Biotechnology). The cAMP level is expressed in pmol/well ±SD.

Assay [2] concerns CHO-CFTR(-) cells. As to the kind of experiment: 125I iodide efflux in CHO-CFTR(-) control cells that do not express CFTR. The conditions noted are these: octan-1-ol 0.1 to 5 mM, FSK 5 μM, A23187 2 μM. The assay is classed as cell-based, Chinese hamster.
Assay [3] concerns the target T1, CFTR channel (Homo sapiens, UniProt P13569). As to the kind of experiment: whole-cell patch-clamp in CHO-BQ1 cells, reversibility after washing. The assay is classed as cell-based. Details: expressed in transfected cells; host or cells: CHO-BQ1 cells. To be noted: octan-1-ol 1 mM, washing 15 min with physiological saline. The procedure:
(§1) More specifically, culture dishes (cell support) are placed in an experimentation cell (volume 1 ml) on the platform of an inverted microscope (Nikon) equipped with phase-contrast lighting. The whole-cell configuration is used for recording the cell currents (Hamill et al., 1981). The experiments are carried out at ambient temperature (20-22° C.). The currents are amplified with an Axopatch 200B amplifier (Axon Instrument Ltd) having a 2-5 kHz low-pass filter (Bessel 6-pole filter), and recorded on the hard disk of a PC after digitization at 10-25 kHz. The pipettes are produced from glass tubes 1 mm in diameter (Clark Electromedical Instrument) in four steps with a horizontal drawing device (Bruwn Flaming 97, CA).
(§2) The pipettes, filled with an intracellular solution containing, in mM: 60 KCl; 80 NMDG ([…]); 10 HEPES; 5 EGTA; 1 CaCl2; 4 MgATP; 0.2 Na3GTP; pH 7.4, titrated with KOH), having a resistance of 5 MΩ. The potentials are expressed as the difference between the potential of the patch electrode and that of the bath. In the whole-cell configuration, they represent the membrane potential of the cell. […] The current-voltage relationships in the stationary state are determined using slow voltage ramps (20 mV/.s) under an imposed voltage condition. […]
Background: The patch-clamp technique gives a direct electrical read-out from membranes.

For assay [4], the target named is T1, CFTR channel. Kind of assay: whole-cell patch-clamp in CHO-CFTR(+) cells. The format is cell-based. Details: expressed in transfected cells; host or cells: CHO (Chinese hamster ovary) cells, CHO-CFTR(+).
Excerpt: The patch-clamp technique consists in applying a glass pipette or a glass microelectrode to the surface of the cell. By applying slight touch, it is possible to cause the membrane to adhere to the glass. A small piece of membrane (patch) is thus isolated at the end of the pipette. This is the principle of patch-clamp (O. P. Hamill et al., Pflügers Arch., 1981, 391, 85-100; R. Penner, A Practical Guide to Patch Clamping, 1995, In Single Channel Recording, 2nd edition (Eds. B. Sakmann et al.) Plenum Press, New York, 3-30). To do this, the patch-clamp pipette must have a tip of the order of 1 μm in diameter and a resistance of the order of 1-5 MΩ. The resistance of a pipette or of a microelectrode makes it possible to assess the fineness of the tip: the greater the resistance, the finer the tip or the more the electrode is blocked. […] Interactions between the membrane and the glass will form, aided by a slight suction or negative pressure in the pipette. The quality of this interaction (or sealing) is also assessed by measuring the resistance between the glass and the membrane. To measure overall currents in the whole cell configuration, a sealing resistance of 1 GΩ is sufficient.
as §1
as §2, with “cell. The junction potentials that form between the recording electrode and the extracellular medium are eliminated before the contact of the electrode with the cell.” for “cell.”

The structures appear in SMILES notation.

T1 sequence (P13569 whole entry): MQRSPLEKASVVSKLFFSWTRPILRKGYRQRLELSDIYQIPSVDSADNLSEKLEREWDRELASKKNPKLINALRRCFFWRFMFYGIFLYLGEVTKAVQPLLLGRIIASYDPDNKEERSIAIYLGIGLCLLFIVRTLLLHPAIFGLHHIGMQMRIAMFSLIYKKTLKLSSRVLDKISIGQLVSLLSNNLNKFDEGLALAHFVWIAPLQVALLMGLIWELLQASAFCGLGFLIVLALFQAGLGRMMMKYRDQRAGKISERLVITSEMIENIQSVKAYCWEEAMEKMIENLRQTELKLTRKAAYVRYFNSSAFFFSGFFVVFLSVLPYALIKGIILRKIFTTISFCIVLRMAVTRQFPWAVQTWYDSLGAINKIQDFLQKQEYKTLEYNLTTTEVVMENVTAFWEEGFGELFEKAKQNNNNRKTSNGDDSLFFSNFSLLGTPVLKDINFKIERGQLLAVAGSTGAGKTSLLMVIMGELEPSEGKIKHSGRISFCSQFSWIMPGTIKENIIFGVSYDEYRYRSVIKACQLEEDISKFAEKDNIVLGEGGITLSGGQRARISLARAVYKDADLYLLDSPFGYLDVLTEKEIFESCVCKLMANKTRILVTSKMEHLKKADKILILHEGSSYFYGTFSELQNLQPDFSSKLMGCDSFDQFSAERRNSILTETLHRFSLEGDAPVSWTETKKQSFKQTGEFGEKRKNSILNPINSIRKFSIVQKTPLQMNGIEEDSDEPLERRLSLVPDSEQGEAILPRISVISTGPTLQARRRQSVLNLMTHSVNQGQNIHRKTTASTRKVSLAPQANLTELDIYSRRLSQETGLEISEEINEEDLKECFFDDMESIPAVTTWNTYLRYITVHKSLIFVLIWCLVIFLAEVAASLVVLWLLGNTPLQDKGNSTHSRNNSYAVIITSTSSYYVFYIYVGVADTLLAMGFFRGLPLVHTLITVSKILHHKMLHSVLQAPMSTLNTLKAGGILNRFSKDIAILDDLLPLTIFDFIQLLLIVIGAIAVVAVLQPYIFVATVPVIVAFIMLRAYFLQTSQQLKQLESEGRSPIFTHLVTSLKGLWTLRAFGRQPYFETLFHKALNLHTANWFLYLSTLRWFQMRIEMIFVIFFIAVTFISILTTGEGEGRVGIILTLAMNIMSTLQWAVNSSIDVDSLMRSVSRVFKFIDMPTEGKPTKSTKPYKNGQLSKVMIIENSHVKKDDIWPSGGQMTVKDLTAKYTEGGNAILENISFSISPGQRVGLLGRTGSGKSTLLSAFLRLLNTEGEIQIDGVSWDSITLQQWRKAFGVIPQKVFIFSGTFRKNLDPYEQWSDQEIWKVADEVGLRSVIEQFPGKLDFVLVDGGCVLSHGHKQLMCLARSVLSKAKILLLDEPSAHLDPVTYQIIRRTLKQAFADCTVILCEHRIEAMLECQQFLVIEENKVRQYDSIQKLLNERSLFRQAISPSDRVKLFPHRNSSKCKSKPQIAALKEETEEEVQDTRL

Regarding `CCCCCCCCO` [octan-1-ol], in assay [1], the “effect on intracellular cAMP level” value is “neither octan-1-ol, hexan-1-ol or ethanol modifies the basal cAMP level”. In assay [2], the “effect on basal level of 125I efflux in cells not expressing CFTR” value was “do not significantly modify the basal level”. Further, in assay [3], the “reversibility of the activating effect on CFTR” value is recorded as “reversible”. Also, in assay [4] (octan-1-ol alone 1 mM, without FSK), the “activation of the CFTR channel by patch-clamp, in words” value is reported as “full activation”. In assay [4] (whole-cell, FSK- or octan-1-ol-induced current), the “reversion potential of the induced current” value is listed as 1±0.6 mV. Moreover, the “increase in membrane conductance compared with the control” value in assay [4] (whole-cell, FSK 1 μM, octan-1-ol 1 mM) is “approximately 10 fold”.
